Test systems include A549; ACHN; BT-549; CCRF-CEM; HCT-116; HCT-15; HL-60; HOP-92; KM12; LOX IMVI; MDA-N; NCI-H460; OVCAR-5; SF-295; SK-MEL-2; SW-620; U-251; UO-31; SF-539.
Common to all, as to experiment: NCI tumour cell line growth inhibition, 48 h

Each structure is given as a SMILES string.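 Grown in 96-well plates, cells were treated for 48 hours with each compound at five concentrations. Insufficient inhibition: endpoint recorded as highest concentration tested. GI50 = concentration required for 50% inhibition of growth.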 Active and inactive are the calls of the source. Rule as the data show it: active = GI50 up to about 1.1 µM and inactive = higher.

On to `CC12CCCC(C(=O)O)(C1)[C@H](C(C)(C)C(=O)O)CC2` (some centres undefined), for which the GI50 with A549 was > 100 µM (inactive); in the assay on ACHN, > 100 µM (inactive); in the assay on BT-549, > 100 µM (inactive); in the assay with CCRF-CEM, > 100 µM (inactive); in the assay with HCT-116, > 100 µM (inactive); with HCT-15, greater than 100 µM. In addition, the GI50 with HL-60, in the assay on HOP-92, with KM12, with LOX IMVI, in the assay on MDA-N and with NCI-H460 was > 100 µM (inactive) in each case. Also, the GI50 with OVCAR-5, in the assay on SF-295, in the assay with SK-MEL-2, in the assay with SW-620, in the assay on U-251 and in the assay on UO-31 was > 100 µM (inactive) in each case.
Regarding `COC(=O)C(CCSc1ccccc1)C(=O)OC`, the GI50 is > 100 µM (inactive) in the assay on A549; > 100 µM (inactive) with ACHN; > 100 µM (inactive) with BT-549; > 100 µM (inactive) in the assay with CCRF-CEM; > 100 µM (inactive) with HCT-116; greater than 100 µM in the assay on HCT-15. In addition, the GI50 is 79.3 µM (inactive) with HL-60; > 100 µM (inactive) in the assay with HOP-92; > 100 µM (inactive) with KM12; > 100 µM (inactive) in the assay on MDA-N; > 100 µM (inactive) in the assay with NCI-H460; > 100 µM (inactive) with OVCAR-5. Further, the GI50 with SF-295, in the assay with SF-539, in the assay with SK-MEL-2, in the assay on SW-620, in the assay with U-251 and in the assay with UO-31 was > 100 µM (inactive) throughout.
On to `O=C(c1cc(Cl)cc(Cl)c1)N(C(=S)OC12CC3CC(CC(C3)C1)C2)c1ccccc1`, for which the GI50 in the assay with A549 was 42.7 µM (inactive); in the assay on ACHN, 33.2 µM (inactive); in the assay with BT-549, 50.2 µM (inactive); in the assay on CCRF-CEM it was 5.24 µM (inactive); with HCT-116, 28.1 µM (inactive); with HCT-15, 34.6 µM. The GI50 in the assay with HL-60 is 24.4 µM (inactive); in the assay with HOP-92 it was 29 µM (inactive); with KM12, 40.3 µM (inactive); in the assay on MDA-N, 31.8 µM (inactive); in the assay with NCI-H460, 35.3 µM (inactive); in the assay with OVCAR-5 it was 46.3 µM (inactive). For the same compound, the GI50 in the assay with SF-295 was 34.5 µM (inactive); with SF-539 it was 40 µM (inactive); in the assay with SK-MEL-2, 19.4 µM (inactive); with SW-620 it was 39.5 µM (inactive); in the assay on U-251, 33 µM (inactive); in the assay with UO-31, 25.1 µM (inactive).
As for `COc1ccc(CCn2ccc(=O)c(O)c2C)cc1OC`, the GI50 with A549 is 21.4 µM (inactive); with ACHN it was 5.26 µM (inactive); in the assay with BT-549 it was 52.4 µM (inactive); with HCT-116 it was 37.2 µM (inactive); in the assay with HCT-15, 2.7 µM; in the assay with HL-60, 32.2 µM (inactive). Also, the GI50 in the assay on HOP-92 was 20.4 µM (inactive); in the assay on KM12 it was 40.3 µM (inactive); in the assay on LOX IMVI, 25.5 µM (inactive); in the assay on MDA-N it was 19.2 µM (inactive); in the assay on NCI-H460, 5.81 µM (inactive); with OVCAR-5, 26.7 µM (inactive). In addition, the GI50 with SF-295 is 5.77 µM (inactive); in the assay with SF-539, 26.2 µM (inactive); in the assay with SW-620, 41.1 µM (inactive); in the assay with U-251 it was 9.64 µM (inactive).
For `O=C(CSc1nc2ccc(I)cc2c(=O)n1Cc1ccccc1)Nc1ccccc1`, the GI50 in the assay on A549 was 26.6 µM (inactive); in the assay on ACHN it was 26 µM (inactive); with BT-549, 20 µM (inactive); in the assay with CCRF-CEM, > 100 µM (inactive); with HCT-116, 42.1 µM (inactive); in the assay on HCT-15 it was 41.5 µM. Moreover, the GI50 in the assay with HL-60 was > 100 µM (inactive); with HOP-92 it was 19.3 µM (inactive); with KM12 it was 94.4 µM (inactive); in the assay with LOX IMVI, 50.7 µM (inactive); in the assay on MDA-N, > 100 µM (inactive); in the assay with OVCAR-5, 30.6 µM (inactive). Also, the GI50 with SF-295 was 14.9 µM (inactive); in the assay on SF-539, 3.08 µM (inactive); with SK-MEL-2 it was 13.8 µM (inactive); in the assay on SW-620, 92.7 µM (inactive); with U-251 it was 14.3 µM (inactive); in the assay on UO-31 it was 0.331 µM (active).
For `Cc1ccc2c(c1C)C(=O)C1(C2)Cc2ccc3c(c2C1=O)CCC3` (centres undefined), the GI50 is > 100 µM (inactive) in the assay on A549; > 100 µM (inactive) with ACHN; > 100 µM (inactive) with BT-549; > 100 µM (inactive) in the assay on CCRF-CEM; > 100 µM (inactive) in the assay on HCT-116; greater than 100 µM in the assay on HCT-15. For the same compound, the GI50 with HL-60, in the assay with HOP-92, with KM12, with MDA-N, in the assay on NCI-H460 and with OVCAR-5 was > 100 µM (inactive) throughout. Besides, the GI50 was > 100 µM (inactive) in the assay on SF-295; 29.9 µM (inactive) with SF-539; > 100 µM (inactive) in the assay with SK-MEL-2; > 100 µM (inactive) in the assay with SW-620; > 100 µM (inactive) in the assay on U-251; > 100 µM (inactive) in the assay with UO-31.
Consider `Cc1c(O)c(=O)ccn1CCc1ccc(O)cc1`, for which the GI50 in the assay on A549 was 32.9 µM (inactive); in the assay on ACHN, 13.9 µM (inactive); in the assay with BT-549, > 100 µM (inactive); with CCRF-CEM it was 10 µM (inactive); in the assay with HCT-116, 35.7 µM (inactive); in the assay with HCT-15 it was 4.82 µM. For the same compound, the GI50 in the assay on HL-60 is 33.5 µM (inactive); in the assay on HOP-92, 24.3 µM (inactive); in the assay on KM12 it was 41.3 µM (inactive); in the assay on LOX IMVI, 20.5 µM (inactive); with MDA-N, 11.9 µM (inactive); in the assay with NCI-H460, 17.1 µM (inactive). For the same compound, the GI50 was 30 µM (inactive) in the assay on OVCAR-5; 24.3 µM (inactive) in the assay on SF-295; 29.4 µM (inactive) in the assay with SF-539; 44.8 µM (inactive) with SW-620; 13.9 µM (inactive) in the assay with U-251.
Regarding `CCOP(=O)(OCC)C(Cc1ccccc1)N=C(c1ccccc1)c1ccccc1` (centres undefined), the GI50 in the assay with A549 is 9.29 µM (inactive); in the assay with ACHN it was 14.9 µM (inactive); with BT-549 it was 13.2 µM (inactive); in the assay on CCRF-CEM, 9.95 µM (inactive); with HCT-116, 14.6 µM (inactive); with HCT-15, 12.1 µM. Moreover, the GI50 in the assay with HL-60 was 16.3 µM (inactive); with HOP-92 it was 13.6 µM (inactive); with KM12, 15.5 µM (inactive); in the assay on LOX IMVI, 11.6 µM (inactive); with MDA-N it was 14.6 µM (inactive); with NCI-H460 it was 14.8 µM (inactive). Further, the GI50 in the assay on OVCAR-5 was 14.4 µM (inactive); in the assay on SF-295 it was 12.3 µM (inactive); with SK-MEL-2 it was 18.2 µM (inactive); in the assay with SW-620, 12.4 µM (inactive); in the assay on U-251 it was 13.3 µM (inactive); in the assay on UO-31 it was 11.5 µM (inactive).
Regarding `CNC(=O)CCC(NC(C)=O)C(=O)NC(Cc1ccc(NC(=O)CCCCC(C)=O)cc1)C(=O)NC(CCC(=O)NC)C(=O)NC` (centres undefined), the GI50 in the assay with A549 was > 100 µM (inactive); in the assay on ACHN, > 100 µM (inactive); in the assay on BT-549, > 100 µM (inactive); with HCT-116, > 100 µM (inactive); in the assay with HCT-15 it was greater than 100 µM; in the assay with HL-60 it was > 100 µM (inactive). Moreover, the GI50 with HOP-92, in the assay with KM12, with LOX IMVI, in the assay with MDA-N, with NCI-H460 and with OVCAR-5 was > 100 µM (inactive) in each case. Further, the GI50 in the assay on SF-295, in the assay with SF-539, with SW-620, in the assay on U-251 and in the assay on UO-31 was > 100 µM (inactive) throughout.
In the case of `O=c1cc(NNCc2ccccc2)[nH]c(=O)[nH]1`, the GI50 is > 100 µM (inactive) in the assay with A549; > 100 µM (inactive) in the assay on ACHN; > 100 µM (inactive) with BT-549; > 100 µM (inactive) in the assay on CCRF-CEM; > 10 µM (inactive) with HCT-116; greater than 100 µM in the assay on HCT-15. In addition, the GI50 with HL-60 is > 100 µM (inactive); in the assay on HOP-92, 4.68 µM (inactive); with KM12, > 100 µM (inactive); in the assay with LOX IMVI it was > 100 µM (inactive); with MDA-N, > 100 µM (inactive); in the assay on NCI-H460, > 100 µM (inactive). Also, the GI50 with OVCAR-5 was > 100 µM (inactive); in the assay on SF-295, > 100 µM (inactive); in the assay with SF-539 it was > 100 µM (inactive); with SW-620, > 100 µM (inactive); with U-251, > 100 µM (inactive); in the assay on UO-31, 74 µM (inactive).
With `CNC(=S)/C(C#N)=C(\N)N1CCN(C)CC1`, the GI50 with A549 is > 100 µM (inactive); with ACHN it was > 100 µM (inactive); in the assay on BT-549 it was > 100 µM (inactive); with CCRF-CEM it was > 100 µM (inactive); in the assay on HCT-116, > 100 µM (inactive); in the assay with HCT-15 it was greater than 100 µM. The GI50 with HL-60, with HOP-92, in the assay on KM12, in the assay on LOX IMVI, with MDA-N and with OVCAR-5 was > 100 µM (inactive) in each case. Further, the GI50 with SF-295, with SF-539, in the assay on SK-MEL-2, in the assay on SW-620, in the assay with U-251 and with UO-31 was > 100 µM (inactive) each time.

Source of the values: ChEMBL document CHEMBL1201862, “PubChem BioAssay data set” (2004).
